From patent publication US20140377337A1 (priority 2012, published 2014)

How the values were obtained:
ocular district = experiment: Blood flow / anti-ischemic effect in the ocular district after PGE1 cream on the inner forearm; type: in vivo, patient
high myopia = conditions: intravenously administered PGE1, conclusion of the cited publication; cited from earlier work

Question: For `CCCCC[C@H](O)/C=C/[C@H]1[C@H](O)CC(=O)[C@@H]1CCCCCCC(=O)O` [PGE1, prostaglandin E1], which “anti-ischemic effects in the ocular district versus 60 micrograms of PGE1 by intravenous infusion” value (ocular district; cream 20 μg per ml, patient weighing 60 kg, total dose 4 ml of cream (80 μg total of PGE1), transdermal) is on record?
Answer: comparable

Question: What about the “effect on blood flow at the ocular district level” value (ocular district; cream with 10-30 micrograms of PGE1 per ml, applied on the inner forearm) of the same molecule?
Answer: increased blood flow

Question: What about the “duration of the effect of the intravenous administration” value (high myopia) of the same molecule?
Answer: 6-8 weeks
